Measured values published in patent US20260078089A1, “BIOACTIVE PHYTOCHEMICALS IN ZIZYPHUS AND GUARANA” (Phytoquest Limited, priority 2018, published 2026).

Assays:
Format in all cases: biochemical
[1] = test system: glucosidases; assay: Glycosidase panel, glucosidases overall; conditions: panel of glucosidases
Method: Glycosidase assays were conducted on Compounds 1 and 3 and an extract of Zizyphus used in the disaccharide loading mouse studies to determine if glucosidase inhibition might explain the effects on blood glucose. A panel of glycosidases were used to be sure any activity found was a selective inhibition and not just non-specific binding to the enzyme.
Glycosidase assays were conducted as described by Watson et al. (Phytochemistry 1997, 46, 255) using p-nitrophenyl-substrates (except sialidase which used methylumbeliferyl-N-acetyineuraminic acid as substrate). Assays were carried out in microtitre plates. Enzymes were assayed in 0.1 M citric acid/0.2 M di-sodium hydrogen phosphate (McIlvaine) buffers at the optimum pH for the enzyme. All assays were carried out at 20° C. All enzymes and substrates were purchased from Sigma Aldrich Chemicals Limited. The incubation mixture consisted of 10 μl of enzyme solution, 10 μl of the iminosugars solution and 50 μl of the appropriate 5 mM p-nitrophenyl substrate made up in McIlvaine buffer at the optimum pH for the enzyme. The reactions were stopped with 0.4 M glycine (pH 10.4) during the exponential phase of the reaction. Absorbances were read at 405 nm. Water was substituted for the alkaloids in the blanks. Reactions were carried out in triplicate. […]

[2] = molecular target: T1, α-D-mannosidase (Canavalia ensiformis, UniProt C0HJB3); assay: Glycosidase assay, p-nitrophenyl substrate; conditions: Jack bean enzyme; screened at 0.14 mg mL−1 (footnote: 0.4 mM)
T1 construct: purchased Sigma Aldrich Chemicals Limited
T1 sequence (C0HJB3 1-981): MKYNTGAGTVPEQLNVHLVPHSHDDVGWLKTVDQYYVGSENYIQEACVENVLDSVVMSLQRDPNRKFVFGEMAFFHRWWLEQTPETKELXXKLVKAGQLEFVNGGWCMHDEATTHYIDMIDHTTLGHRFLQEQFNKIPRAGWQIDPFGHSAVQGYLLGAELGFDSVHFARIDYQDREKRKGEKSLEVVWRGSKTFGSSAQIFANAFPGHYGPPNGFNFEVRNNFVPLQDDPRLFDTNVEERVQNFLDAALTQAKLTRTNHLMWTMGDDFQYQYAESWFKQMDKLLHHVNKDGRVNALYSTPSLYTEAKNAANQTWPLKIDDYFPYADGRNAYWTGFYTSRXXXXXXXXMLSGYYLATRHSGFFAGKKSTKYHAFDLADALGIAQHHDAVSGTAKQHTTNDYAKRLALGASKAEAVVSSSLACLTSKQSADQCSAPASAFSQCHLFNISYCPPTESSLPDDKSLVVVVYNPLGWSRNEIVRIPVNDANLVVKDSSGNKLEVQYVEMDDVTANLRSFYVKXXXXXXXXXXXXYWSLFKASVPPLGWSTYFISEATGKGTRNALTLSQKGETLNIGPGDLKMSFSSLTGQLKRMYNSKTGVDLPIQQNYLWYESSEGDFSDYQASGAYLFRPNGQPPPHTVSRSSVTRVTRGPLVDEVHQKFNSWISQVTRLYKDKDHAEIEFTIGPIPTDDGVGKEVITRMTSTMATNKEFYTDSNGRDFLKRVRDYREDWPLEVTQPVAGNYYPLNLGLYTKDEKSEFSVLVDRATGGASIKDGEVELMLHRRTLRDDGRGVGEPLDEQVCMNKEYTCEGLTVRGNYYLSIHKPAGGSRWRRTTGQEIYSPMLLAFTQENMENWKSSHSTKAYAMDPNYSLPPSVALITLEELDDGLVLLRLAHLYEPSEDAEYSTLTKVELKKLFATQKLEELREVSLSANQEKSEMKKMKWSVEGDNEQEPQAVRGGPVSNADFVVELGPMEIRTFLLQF
Method: (§1) Glycosidase assays were conducted as described by Watson et al. (Phytochemistry 1997, 46, 255) using p-nitrophenyl-substrates (except sialidase which used methylumbeliferyl-N-acetyineuraminic acid as substrate). Assays were carried out in microtitre plates. Enzymes were assayed in 0.1 M citric acid/0.2 M di-sodium hydrogen phosphate (McIlvaine) buffers at the optimum pH for the enzyme. All assays were carried out at 20° C. All enzymes and substrates were purchased from Sigma Aldrich Chemicals Limited. The incubation mixture consisted of 10 μl of enzyme solution, 10 μl of the iminosugars solution and 50 μl of the appropriate 5 mM p-nitrophenyl substrate made up in McIlvaine buffer at the optimum pH for the enzyme. The reactions were stopped with 0.4 M glycine (pH 10.4) during the exponential phase of the reaction. Absorbances were read at 405 nm. Water was substituted for the alkaloids in the blanks. Reactions were carried out in triplicate.
(§2) Enzyme inhibitor solutions—Compounds were dissolved in distilled water at a concentration of 1 mg mL^−1 and then screened at a concentration of 0.14 mg mL^−1 after dilution of the 1 mg mL^−1 in the assay volumes of substrates.

[3] = molecular target: T2, α-D-glucosidase (Saccharomyces cerevisiae, UniProt P53341); assay: Glycosidase assay, p-nitrophenyl substrate; conditions: Saccharomyces cerevisiae enzyme; screened at 0.14 mg mL−1 (footnote: 0.4 mM); 20° C
T2 construct: purchased Sigma Aldrich Chemicals Limited
T2 sequence (P53341 whole entry): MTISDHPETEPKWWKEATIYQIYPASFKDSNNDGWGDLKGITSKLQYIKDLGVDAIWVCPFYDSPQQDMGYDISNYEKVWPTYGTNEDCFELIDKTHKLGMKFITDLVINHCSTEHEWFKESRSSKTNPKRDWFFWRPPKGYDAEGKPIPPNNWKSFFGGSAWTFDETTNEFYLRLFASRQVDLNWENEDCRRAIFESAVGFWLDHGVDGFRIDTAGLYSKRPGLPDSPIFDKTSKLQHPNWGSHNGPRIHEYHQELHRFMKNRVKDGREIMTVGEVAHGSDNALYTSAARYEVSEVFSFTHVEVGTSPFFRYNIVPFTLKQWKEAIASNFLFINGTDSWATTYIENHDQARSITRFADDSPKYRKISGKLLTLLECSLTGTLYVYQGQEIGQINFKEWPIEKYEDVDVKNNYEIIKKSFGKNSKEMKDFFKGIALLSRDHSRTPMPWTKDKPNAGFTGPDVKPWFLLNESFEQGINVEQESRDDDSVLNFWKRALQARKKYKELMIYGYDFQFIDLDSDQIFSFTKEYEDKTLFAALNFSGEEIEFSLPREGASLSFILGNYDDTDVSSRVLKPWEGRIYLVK
Method: as §1, §2

[4] = test system: β-D-galactosidase; assay: Glycosidase assay, p-nitrophenyl substrate; conditions: Bovine liver enzyme; screened at 0.14 mg mL−1 (footnote: 0.4 mM)
Method: as §1, §2

[5] = test system: N-acetyl-β-D-glucosaminidase; assay: Glycosidase assay, p-nitrophenyl substrate; conditions: screened at 0.14 mg mL−1 (footnote: 0.4 mM)
Method: as §1, §2

[6] = molecular target: T3, α-L-fucosidase (Bos taurus, UniProt Q2KIM0); assay: Glycosidase assay, p-nitrophenyl substrate; conditions: Bovine kidney enzyme; screened at 0.14 mg mL−1 (footnote: 0.4 mM)
T3 construct: purchased Sigma Aldrich Chemicals Limited
T3 sequence (Q2KIM0 23-468): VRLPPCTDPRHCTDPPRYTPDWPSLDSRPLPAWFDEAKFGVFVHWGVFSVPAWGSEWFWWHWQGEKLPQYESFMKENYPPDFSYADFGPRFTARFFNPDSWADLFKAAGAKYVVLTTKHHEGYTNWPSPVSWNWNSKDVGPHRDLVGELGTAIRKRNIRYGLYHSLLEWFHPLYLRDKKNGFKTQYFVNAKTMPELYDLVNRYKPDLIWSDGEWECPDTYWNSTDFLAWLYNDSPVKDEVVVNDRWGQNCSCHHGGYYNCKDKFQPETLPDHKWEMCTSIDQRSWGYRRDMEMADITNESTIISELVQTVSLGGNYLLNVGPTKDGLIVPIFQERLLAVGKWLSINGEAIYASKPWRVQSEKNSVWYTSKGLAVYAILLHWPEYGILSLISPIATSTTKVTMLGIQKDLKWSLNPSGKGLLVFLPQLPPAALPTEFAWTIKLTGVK
Method: as §1, §2

With `OC[C@H]1N[C@H](CO)[C@@H](O)[C@@H]1O` [DMDP] as the compound, how does the “glucosidase inhibition (in words)” value [1] read?
The value was “expected strong inhibition of various glucosidases”.

What about the “% inhibition” value [2] of the same compound?
Its value is 2.70%.

And the “% inhibition” value [3]?
Its value is 97.37%.

And the “% inhibition” value [4]?
The value was 98.75%.

What about the “% inhibition” value ([5]; Bovine kidney enzyme) of the same compound?
Its value is −7.60%.

And the “% inhibition” value ([5]; Jack bean enzyme)?
The value was −6.65%.

What about the “% inhibition” value [6] of the same compound?
The value was 4.84%.
